Results as given in PubChem BioAssay AID2305 (GlaxoSmithKline (GSK), 2010).
Where “and” joins values, the source holds several entries; their conditions need not be identical. Equal entries are not always repeated.

What follows are compounds tested on P. falciparum 3D7 growth, pLDH absorbance (assay: blood-stage malaria parasite growth potency – strain 3D7, dose response (AID 2305)).
Compound `O=C(Nc1cccc(-c2ccc(-c3nc4ccccc4[nH]3)cc2)c1)c1csnn1` has an IC50 of 1070 nM.
With `O=C(NC1CCC(N2CCC(O)(c3ccc(F)cc3)CC2)CC1)c1cc2ccccc2[nH]1` (centres undefined) the IC50 was 740 nM.
`CC1Cc2ccccc2N1S(=O)(=O)c1cccc(C(=O)Nc2nc(-c3ccccn3)cs2)c1` (centres undefined) showed an IC50 of 1320 nM.
In the case of `CC1CC(C)CN(S(=O)(=O)c2cc(C(=O)Nc3cccc([N+](=O)[O-])c3)ccc2Br)C1` (centres undefined), the IC50 is reported as 900 nM.
For `Cc1cc(NN=Cc2ccccc2[N+](=O)[O-])c2cc(C(F)(F)F)ccc2n1`, the IC50 was 750 nM.
`Cc1cccc2[nH]c(-c3ccc(-c4cccc(CNCc5ccc(CN)cc5)c4)s3)nc12` showed an IC50 of 610 nM.
`N#Cc1ccc(CN2CCC(Oc3ccc(NC(=O)c4ccco4)cc3Cl)CC2)cc1` showed an IC50 of 380 nM.
Work on `CNC(=S)NCc1cnc2ccccn12` yielded an IC50 of 200 nM.
`O=c1[nH]c2c(c(O)c1[N+](=O)[O-])CCC2` gave an IC50 of 1050 nM.
Work on `NS(=O)(=O)c1cncc(-c2ccc3nccc(-c4cn[nH]c4)c3n2)c1` yielded an IC50 of 530 nM.
For `COC(=O)c1ccc(NC(=O)Nc2cccc(CCNCc3ccccc3)c2)cc1`, the IC50 was 870 nM.
`Cn1ncc2c3c(CCN4CCC(NCc5ccc6c(c5)NC(=O)CO6)CC4)c(Cl)cnc3ccc21` was tested, and the IC50 was 490 nM.
Work on `O=C(/C=C/c1ccc(C(F)(F)F)cc1)NCCCCCN1CCN(C(=O)Nc2ccc(Cl)cc2)CC1` yielded an IC50 of 1010 nM.
`Cc1cc(-c2cccc3c(C(=O)N4CCc5cc6nccc(N7CCCN(C)CC7)c6cc54)cccc23)cc(C)n1` showed an IC50 of 440 nM.
Compound `CCN(c1ccc(F)cc1)S(=O)(=O)c1cc(Br)cc2c1N(C(=O)C1CC1)CC2` has an IC50 of 940 nM.
In the case of `CC=CC(=O)N1CCN(c2nccc(-c3ccc(C(C)(C)C)cc3)n2)CC1`, the IC50 is reported as 1080 nM.
Compound `CCCCCCC(C)c1cc(OCCN(CC)CC)c2c(c1)OC(C)(C)C=C2c1ccncc1` (centres undefined) has an IC50 of 1260 nM.
`O=C(Nc1cccc(C(F)(F)F)c1)c1cccc(S(=O)(=O)NC2CCN(CC3CCCCC3)C2)c1` (centres undefined) was tested, and the IC50 was 590 nM.
Work on `Cc1cc(-c2ccc(NC(=O)Nc3ccc4nccc(N5CCN(C)CC5)c4c3)cc2C)cc(C)n1` yielded an IC50 of 150 nM.
With `NCC(NC(=O)c1ccc(-c2c[nH]c3ncccc23)s1)c1ccccc1` (centres undefined) the IC50 was 550 nM.
With `Oc1ccc2[nH]c(-c3cccc(F)c3)nc2c1CN1CCCC1` the IC50 was 800 nM.
`NC1=NC(c2ccccc2)N(c2ccc(Cl)c(Cl)c2)C(N)=N1` (centres undefined) showed an IC50 of 10 nM.
Work on `COc1ccc2nccc(N3CCCN(CCNCc4ccc5c(n4)NC(=O)CS5)CC3)c2n1` yielded an IC50 of 150 nM.
For `COc1ccccc1NC(=O)Nc1ccc(-c2ccc(-c3nc4ccc(C(F)(F)F)cc4[nH]3)cc2)cc1`, the IC50 was 540 nM.
`COc1ccccc1CCNC(=O)c1cnc(N2CCN(c3ccncc3)CC2)c(Cl)c1` was tested, and the IC50 was 1150 nM.
Compound `CC1(C)[C@H]2CC[C@@H](CNc3nc(NCCc4cnc[nH]4)nc(NCc4cc(F)ccc4F)n3)[C@@H]1C2` has an IC50 of 310 nM.
Compound `Cc1cccc2[nH]c(-c3cccc(-c4cccc(CN5CCCC5CN)c4)c3)nc12` (centres undefined) has an IC50 of 770 nM.
Compound `CN1CCC(O)(c2ccc(Br)cc2)C(C(O)c2ccc(Br)cc2)C1` (centres undefined) has an IC50 of 730 nM.
`CC(C)c1sc(N2CCN(C)CC2)nc1C(=O)NCCc1cccc(Cl)c1` was tested, and the IC50 was 1490 nM.
`CC(C)c1ccc(C=CC(=O)N2CCC(CCN3CCC(c4c[nH]c5ccccc45)CC3)CC2)cc1` showed an IC50 of 1260 nM.
`N#Cc1ccc(N2CCN(Cc3cccc(-c4ccc(-c5nc6ccccc6[nH]5)cc4)c3)CC2)nc1` gave an IC50 of 1240 nM.
Work on `NC1=NC(C=Cc2ccccc2)N(OCCCCCCON2C(N)=NC(N)=NC2C=Cc2ccccc2)C(N)=N1` (centres undefined) yielded an IC50 of 610 nM.
`COc1ccc(Oc2ccc(-c3c(C)[nH]c(C)c(Cl)c3=O)cc2)cc1` was tested, and the IC50 was 140 nM.
`CCOc1cc(C(=O)NCc2cc(Cl)cc(Cl)c2)ccc1-c1nc2ccc(Cl)cc2[nH]1` gave an IC50 of 730 nM.
Compound `CCn1c(-c2nonc2N)nc2c(-c3cccc(NC(=O)Nc4ccc(C#N)cc4)c3)ncc(OCCCN)c21` has an IC50 of 1510 nM.
With `CCCNCc1ccc(-c2ccc(CN(CCOC)C(=O)/C=C/c3ccccc3C)cc2)nc1` the IC50 was 900 nM.
`OC(Cn1ccnc1)(c1ccc(Cl)cc1Cl)C1CCCCC1` (centres undefined) gave an IC50 of 980 nM.
In the case of `CCCc1c(Cl)cc(CNCCCNc2nc3ccncc3[nH]2)cc1Cl`, the IC50 is reported as 740 nM.
`O=C(Nc1cccc(C(F)(F)F)c1)N1CCOC(CCN2CCC(c3ccccc3)CC2)(c2ccc(Cl)c(Cl)c2)C1` (centres undefined) showed an IC50 of 1110 nM.
`CN1CCC(Oc2cc(CN3CC[C@H](NC(=O)c4ccc(Cl)c(Cl)c4)C3)ccc2I)C1` (some centres undefined) showed an IC50 of 840 nM.
`Cc1cc(N2CCCC2)nc(Nc2ccc(NC(=O)C(C)C)cc2)n1` gave an IC50 of 1100 nM.
With `CC(=O)Nc1ccc(CN2CCC(NC(=O)c3ccc(-c4cccc(F)c4)s3)CC2)cc1` the IC50 was 1430 nM.
`Cn1nc(-c2ccc(S(=O)(=O)NC3CCC(CN4CCC(c5c[nH]c6ccccc56)CC4)CC3)s2)cc1C(F)(F)F` (centres undefined) was tested, and the IC50 was 840 nM and 820 nM.
With `NC(=O)c1cccc(C(=O)Nc2cccc(-c3cccc(-c4nc5ccc(C(F)(F)F)cc5[nH]4)c3)c2)c1` the IC50 was 130 nM.
`CCn1c(-c2nonc2N)nc2c(-c3cccc(NC(=O)Nc4cccc(C#N)c4)c3)ncc(OCCCN)c21` was tested, and the IC50 was 670 nM.
With `N[C@@H](CCN1CCC(c2cccc(O)c2)CC1)Cc1ccc(F)c(F)c1` the IC50 was 1110 nM.
`O=C(COc1ccccc1)Nn1cnc2ccccc21` gave an IC50 of 1050 nM.
`CC(C)CCn1c(Sc2ccc(C#N)c([N+](=O)[O-])c2)nnc1-c1cccc(Cl)c1` was tested, and the IC50 was 670 nM.
Work on `c1ccc2[nH]c(-c3ccc(-c4ccc(CNCC5CCCO5)cc4)s3)nc2c1` (centres undefined) yielded an IC50 of 870 nM.
